In patent US20240239788A1, “SMALL MOLECULE INHIBITORS OF KRAS G12D MUTANT” (Merck Sharp & Dohme LLC, priority 2021, published 2024):
Counter-ions that a name gives are not always drawn.

Key:
[1] = molecular target: KRAS protein containing G12D mutation (Homo sapiens (Human), UniProt P01116, G12D); assay: SOS-catalyzed nucleotide exchange assay (GNE), TR-FRET; format: biochemical; settings: biotinylated KRAS G12D, SOS and GTP, 60-minute incubation
Method: Compounds are added to this complex and then after a 60-minute incubation time the mixture is treated with SOS and unlabeled GTP. Small molecule inhibitors stabilize the Bodipy-GDP complex whereas the untreated protein rapidly exchanges Bodipy-GDP for unlabeled GTP resulting in reduced TR-FRET signal.
This solution is referred to as biotinylated KRAS G12D stock solution.

[2] = system: AsPC-1 cells containing homozygous KRAS-G12D activating mutation; assay: Cellular phospho-ERK assay (Examples 1a-106); format: cell-based; settings: AsPC-1 cells, 2 hours, ratio of p-Erk vs total Erk, read-out: IC50 (nM) pERK (Cell)
From the text: 5% CO? overnight. […] Assay plates were read on a EnVision Multimode Plate Reader (PerkinElmer) and the ratio of p-Erk vs total Erk in each well was used as the final readout.

[3] = system: AsPC-1 cells containing homozygous KRAS-G12D activating mutation; assay: Cellular phospho-ERK assay with 10% FBS (Examples 107a-256); format: cell-based; settings: Homo sapiens, ASPC1, 2 h, read-out: IC50 (nM) pERK (cell with FBS 10%), AsPC-1 cells, 10% fetal bovine serum, 2 hours, ratio of p-Erk vs total Erk
Method: 5% CO2 for 2 hours. […] Assay plates were read on a EnVision Multimode Plate Reader (PerkinElmer) and the ratio of p-Erk vs total Erk in each well was used as the final readout.

KRAS protein containing G12D mutation, sequence (P01116 other isoform, or with tags, fused parts or gaps G12D (already in the parent)): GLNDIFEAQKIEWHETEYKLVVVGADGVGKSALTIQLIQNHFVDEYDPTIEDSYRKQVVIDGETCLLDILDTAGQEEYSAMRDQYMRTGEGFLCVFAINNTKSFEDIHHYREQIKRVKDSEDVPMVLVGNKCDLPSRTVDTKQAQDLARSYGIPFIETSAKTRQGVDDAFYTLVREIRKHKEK

Structure (SMILES)	IC50 [1] [nM]	IC50 [2] [nM]	IC50 ([2]; TFA) [nM]	IC50 ([2]; Homo sapiens, ASPC1, 2 h) [nM]	IC50 [3] [nM]
CN(C)C[C@@]1(COc2nc(N3C[C@H]4CC[C@@](C)(C3)N4)c3cc(Cl)c(-c4c(F)cc(F)c5ccc(N)nc45)c(F)c3n2)CC1(F)F (single isomer, unassigned) [92a]	11100	13200			
C#Cc1cccc2cc(O)cc(-c3c(F)cc4c(N5C[C@H]6CC[C@@](C)(C5)N6)nc(OCC5(CN6CC[C@@H](F)C6)CC5)nc4c3F)c12 (single isomer, unassigned) [103b, TFA]	458		2480		
Cc1c(Cl)cc2[nH]nc(C)c2c1-c1c(F)cc2c(N3CC4CCC(C3)N4)nc(OCC3(CN4CC[C@@H](F)C4)CC3)nc2c1F (single isomer, unassigned) [Ex 71a]	18.9	505			
Cc1c(Cl)cc2[nH]nc(C)c2c1-c1c(F)cc2c(N3CC4CCC(C3)N4)nc(OCC3(CN4CC[C@@H](F)C4)CC3)nc2c1F (single isomer, unassigned) [Ex 71b]	1340	4240			
Cc1cc2[nH]ncc2c(-c2c(F)cc3c(N4C[C@H]5CC[C@@](C)(C4)N5)nc(OC[C@]4(CN(C)C)CC4(F)F)nc3c2F)c1C(F)(F)F (single isomer, unassigned) [Ex 76b]	597	4530			
Cc1cc2[nH]ncc2c(-c2c(F)cc3c(N4C[C@H]5CC[C@@](C)(C4)N5)nc(OCC4(CN5CC[C@@H](F)C5)CC4)nc3c2F)c1C(F)(F)F (single isomer, unassigned) [Ex 80b]	1320	5970			
Oc1cc(-c2c(F)cc3c(N4CC5CC(F)C(C4)N5)nc(OCC4(CN5CCOCC5)CC4)nc3c2F)c2ccccc2c1 (single isomer, unassigned) [Ex. 3a, 4-(6,8-difluoro-4-(6-fluoro-3,8-diazabicyclo[3.2.1]octan-3-yl)-2-((1-(morpholinomethyl)cyclopropyl)methoxy)quinazolin-7-yl)naphthalen-2-ol]	506	3610			
Oc1cc(-c2c(F)cc3c(N4CC5CC(F)C(C4)N5)nc(OCC4(CN5CCOCC5)CC4)nc3c2F)c2ccccc2c1 (single isomer, unassigned) [Ex. 3b, 4-(6,8-difluoro-4-(6-fluoro-3,8-diazabicyclo[3.2.1]octan-3-yl)-2-((1-(morpholinomethyl)cyclopropyl)methoxy)quinazolin-7-yl)naphthalen-2-ol]	2160	8240			
C#Cc1cccc2cc(O)cc(-c3c(F)cc4c(N5C[C@H]6CC[C@@](C)(C5)N6)nc(OC[C@]5(CO)CC5(F)F)nc4c3F)c12 (single isomer, unassigned) [Ex. 90]	0.565			564	
C[C@]12CC[C@H](CN(c3nc(OCC4(CN5CCOCC5)CC4)nc4c(F)c(-c5c(F)cc(F)c6ccc(N)nc56)c(Cl)cc34)C1)N2 (single isomer, unassigned) [Ex. 91a]	11100	17600			
C[C@]12CC[C@H](CN(c3nc(OCC4(CN5CCOCC5)CC4)nc4c(F)c(-c5c(F)cc(F)c6ccc(N)nc56)c(Cl)cc34)C1)N2 (single isomer, unassigned) [Ex. 91b]	1020	4160			
Cc1cc2[nH]ncc2c(C2Cc3nc(OC[C@]4(CN(C)C)CC4(F)F)nc(N4C[C@H]5CC[C@@](C)(C4)N5)c3C(=O)O2)c1C(F)(F)F (single isomer, unassigned) [Ex. 96a]	1280	20800			
CN(C)C1CC[C@H]2C[C@@]12COc1nc(N2C[C@H]3CC[C@@](C)(C2)N3)c2cc(F)c(-c3cc(O)cc4ccccc34)c(F)c2n1 (single isomer, unassigned) [Example 12a]	1.89	396			
CN(C)C1CC[C@H]2C[C@@]12COc1nc(N2C[C@H]3CC[C@@](C)(C2)N3)c2cc(F)c(-c3cc(O)cc4ccccc34)c(F)c2n1 (single isomer, unassigned) [Example 12b]	2.07	841			
CN(C)CC1(COc2nc(N3CC4CC(O)C(C3)N4)c3cc(Cl)c(-c4cc(O)cc5ccccc45)c(F)c3n2)CC1 (single isomer, unassigned) [Example 19a]	1180			50800	
CN(C)CC1(COc2nc(N3CC4CC(O)C(C3)N4)c3cc(Cl)c(-c4cc(O)cc5ccccc45)c(F)c3n2)CC1 (single isomer, unassigned) [Example 19b]	1790	50800			
CN(C)CC1(COc2nc(N3CC4CC(O)C(C3)N4)c3cc(Cl)c(-c4cc(O)cc5ccccc45)c(F)c3n2)CC1 (single isomer, unassigned) [Example 22a, 3-(6-chloro-2-((1-((dimethyl-amino)methyl)cyclo-propy)methoxy)-8-fluoro-7-(3-hydroxy-naphthalen-1-yl)quinazolin-4-yl)-3,8-diazabicyclo[3.2.1]oc tan-6-ol]	5090	50800			
CN(C)CC1(COc2nc(N3CC4CC(O)C(C3)N4)c3cc(Cl)c(-c4cc(O)cc5ccccc45)c(F)c3n2)CC1 (single isomer, unassigned) [Example 23, 3-(6-chloro-2-((1-((dimethyalmino)meth-yl)cyclopropyl)meth-oxy)-8-fluoro-7-(3-hydroxynaphthalen-1-yl)quinazolin-4-yl)-3,8-diazabicyclo[3.2.1]oc-tan-6-ol]	4280	44800			
CN(C)CC1(COc2nc(N3C[C@@]4(C)CC[C@H]3CN4)c3cc(Cl)c(-c4cc(O)cc5ccccc45)c(F)c3n2)CC1 (single isomer, unassigned) [Example 38b]	3400	22200			
Cc1cc2[nH]ncc2c(-c2c(F)cc3c(N4CC5CCC(C4)N5)nc(OCC4(CN(C)C)CC4(F)F)nc3c2F)c1C (single isomer, unassigned) [Example 66a, 1-(1-(((4-(3,8-diazabicyclo [3.2.1]octan-3-yl)-7-(5,6-dimethyl-1H-indazol-4-yl)-6,8-difluoroquinazolin-2-yl)oxy)methyl)-2,2-difluorocyclopropyl)-N,N-dimethylmethanamine]	54			3460	
Cc1cc2[nH]ncc2c(-c2c(F)cc3c(N4CC5CCC(C4)N5)nc(OCC4(CN(C)C)CC4(F)F)nc3c2F)c1C (single isomer, unassigned) [Example 66b, 1-(1-(((4-(3,8-diazabicyclo [3.2.1]octan-3-yl)-7-(5,6-dimethyl-1H-indazol-4-yl)-6,8-difluoroquinazolin-2-yl)oxy)methyl)-2,2-difluorocyclopropyl)-N,N-dimethylmethanamine]	31.1	2120			
Cc1c(Cl)cc2[nH]ccc2c1-c1c(F)cc2c(N3CC4CCC(C3)N4)nc(OCC3(CN(C)C)CC3)nc2c1F [Ex 73, 1-(1-(((4-(3,8-diazabicyclo[3.2.1]octan-3-yl)-7-(6-chloro-5-methyl-1H-indol-4-yl)-6,8-difluoroquinazolin-2-yl)oxy)methyl)cyclopropyl)-N,N-dimethylmethanamine]	1250			14000	
[2H]c1c([2H])c(C#C)c2c(-c3c(F)cc4c(N5C[C@H]6CC[C@@](C)(C5)N6)nc(OC[C@@]56CCCN5C[C@H](F)C6)nc4c3F)c([2H])c([2H])c([2H])c2c1[2H] [compound 241, 7-(8-ethynylnaphthalen-1-yl-2,3,4,5,6,7-d6)-6,8-difluoro-2-(((2R,7aS)-2-fluorotetrahydro-1H-pyrrolizin-7a(5H)-yl)methoxy)-4-((1S,5R)-1-methyl-3,8-iazabicyclo[3.2.1]octan-3-yl)quinazoline, 2TFA]	8.63				1760
C[C@]12CCC(CN(c3nc(OC[C@@]45CCCN4C[C@H](F)C5)nc4c(F)c(-c5cc(O)cc(Cl)c5OC(F)(F)F)c(F)cc34)C1)N2 [compound 244, 3-chloro-5-(6,8-difluoro-2-(((2RS,7aS)-2-fluorotetrahydro-1H-pyrrolizin-7a(5H)-yl)methoxy)-4-((1S,5R)-1-methyl-3,8-diazabicyclo[3.2.1]octan-3-yl)quina-zolin-7-yl)-4-(trifluoromethoxy)phenol]	3.7				161
Cc1cc2[nH]nc(C#N)c2c(-c2c(F)cc3c(N4C[C@H]5CC[C@@H](C4)N5)nc(OC[C@@]45CCCN4C[C@H](F)C5)nc3c2F)c1C(F)F [compound 254, 4-(4-((1R,5S)-3,8-diazabicyclo[3.2.1]octan-3-yl)-6,8-difluoro-2-(((2R,7aS)-2-fluorotetrahydro-1H-pyrrolizin-7a(5H)-yl)methoxy)quinazolin-7-yl)-5-(difluoromethyl)-6-methyl-1H-indazole-3-carbonitrile]	0.77				80.3
Cc1cc2[nH]nc(C#N)c2c(-c2c(F)cc3c(N4C[C@H]5CC[C@@H](C4)N5)nc(OC[C@@]45CCCN4C[C@H](F)C5)nc3c2F)c1OC(F)(F)Cl [compound 255, 4-(4-((1R,5S)-3,8-diazabicyclo[3.2.1]octan-3-yl)-6,8-difluoro-2-(((2R,7aS)-2-fluorotetrahydro-1H-pyrrolizin-7a(5H)-yl)methoxy)quinazolin-7-yl)-5-(chlorodifluoromethoxy)-6-methyl-1H-indazole-3-carbonitrile]	0.79				58.9
